Laboratory results from patent publication US11820766B2, “Monoacylglycerol lipase modulators” (Janssen Pharmaceutica NV, priority 2018, dated 2023).
Where a name gives a salt, the structure may show the parent alone.

target: T1, human MGL from HeLa cells (Homo sapiens, UniProt Q99685); assay: In vitro MGL activity assay: [glycerol-1,3-3H]-oleyl glycerol cleavage by MGL from HeLa cells; format: biochemical; settings: 300 nM [Glycerol-1,3-3H]-oleyl glycerol, one hour
T1 construct: combining endogenously expressed MGL from HeLa cells with test compounds; endogenous in cells; host or cells: HeLa cells / cell homogenates
T1 sequence (Q99685 1-303): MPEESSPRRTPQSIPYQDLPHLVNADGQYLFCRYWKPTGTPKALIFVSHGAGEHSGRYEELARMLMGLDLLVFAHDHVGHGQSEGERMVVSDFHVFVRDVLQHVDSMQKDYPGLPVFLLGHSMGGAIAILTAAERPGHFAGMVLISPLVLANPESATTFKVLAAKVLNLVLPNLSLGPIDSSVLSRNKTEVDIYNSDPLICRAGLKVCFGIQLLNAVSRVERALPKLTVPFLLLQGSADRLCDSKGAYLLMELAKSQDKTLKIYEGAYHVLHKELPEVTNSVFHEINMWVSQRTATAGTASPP
From the text: MGL is the predominant hydrolase in HeLa cells/cell homogenates.

Row | SMILES | IC50 [µM]
1 | Cc1ccc2ncc(C(=O)N3CCc4c(nn(C)c4-c4cc(F)c(F)c(F)c4)[C@@H]3C)n2c1 [Example 400, [(7S)-2,7-Dimethyl-3-(3,4,5-trifluorophenyl)-5,7-dihydro-4H-pyrazolo[3,4-c]pyridin-6-yl]-(6-methylimidazo[1,2-a]pyridin-3-yl)methanone] | 0.0523
2 | Cc1nc2cc(F)ccn2c1C(=O)N1CCc2c(nn(C)c2-c2cc(F)c(F)c(F)c2)[C@@H]1C [Example 402, [(7S)-2,7-Dimethyl-3-(3,4,5-trifluorophenyl)-5,7-dihydro-4H-pyrazolo[3,4-c]pyridin-6-yl]-(7-fluoro-2-methyl-imidazo[1,2-a]pyridin-3-yl)methanone] | 0.0216
3 | Cc1nc2c(C)cccn2c1C(=O)N1CCc2c(nn(C)c2-c2cc(F)c(F)c(F)c2)[C@@H]1C [Example 403, (2,8-Dimethylimidazo[1,2-a]pyridin-3-yl)-[(7S)-2,7-dimethyl-3-(3,4,5-trifluorophenyl)-5,7-dihydro-4H-pyrazolo[3,4-c]pyridin-6-yl]methanone] | 0.0436
4 | Cc1ccn2c(C(=O)N3CCc4c(nn(C)c4-c4cc(F)c(F)c(F)c4)[C@@H]3C)c(C)nc2c1 [Example 404, (2,7-Dimethylimidazo[1,2-a]pyridin-3-yl)-[(7S)-2,7-dimethyl-3-(3,4,5-trifluorophenyl)-5,7-dihydro-4H-pyrazolo[3,4-c]pyridin-6-yl]methanone] | 0.0505
5 | Cc1ccc2nc(C)c(C(=O)N3CCc4c(nn(C)c4-c4cc(F)c(F)c(F)c4)[C@@H]3C)n2c1 [Example 405, (2,6-Dimethylimidazo[1,2-a]pyridin-3-yl)-[(7S)-2,7-dimethyl-3-(3,4,5-trifluorophenyl)-5,7-dihydro-4H-pyrazolo[3,4-c]pyridin-6-yl]methanone] | 0.28
6 | COc1cc(Cl)cc(-c2c3c(nn2C)[C@H](C)N(C(=O)c2c(C)nc4ccc(F)cn24)CC3)c1 [Example 406, [(7S)-3-(3-Chloro-5-methoxy-phenyl)-2,7-dimethyl-5,7-dihydro-4H-pyrazolo[3,4-c]pyridin-6-yl]-(6-fluoro-2-methyl-imidazo[1,2-a]pyridin-3-yl)methanone] | 0.0226
7 | Cc1nc2ccc(F)cn2c1C(=O)N1CCc2c(nn(C)c2-c2cc(F)c(F)c(F)c2)[C@@H]1C [Example 407, [(7S)-2,7-Dimethyl-3-(3,4,5-trifluorophenyl)-5,7-dihydro-4H-pyrazolo[3,4-c]pyridin-6-yl]-(6-fluoro-2-methyl-imidazo[1,2-a]pyridin-3-yl)methanone] | 0.0213
8 | Cc1nc2c(C)cc(F)cn2c1C(=O)N1CCc2c(nn(C)c2-c2cc(F)c(F)c(F)c2)[C@@H]1C [Example 408, [(7S)-2,7-Dimethyl-3-(3,4,5-trifluorophenyl)-5,7-dihydro-4H-pyrazolo[3,4-c]pyridin-6-yl]-(6-fluoro-2,8-dimethyl-imidazo[1,2-a]pyridin-3-yl)methanone] | 0.027
9 | C[C@H]1c2nn(C)c(-c3cc(F)c(F)c(F)c3)c2CCN1C(=O)c1c(C(F)(F)F)nc2ccccn12 [Example 413, [(7S)-2,7-Dimethyl-3-(3,4,5-trifluorophenyl)-5,7-dihydro-4H-pyrazolo[3,4-c]pyridin-6-yl]-[2-(trifluoromethyl)imidazo[1,2-a]pyridin-3-yl]methanone] | 0.023
10 | C[C@H]1c2nn(C)c(-c3cc(F)c(F)c(F)c3)c2CCN1C(=O)c1nccn2cccc12 [Example 415, [(7S)-2,7-Dimethyl-3-(3,4,5-trifluorophenyl)-5,7-dihydro-4H-pyrazolo[3,4-c]pyridin-6-yl]-pyrrolo[1,2-a] pyrazin-1-yl-methanone] | 0.0133
11 | C[C@H]1c2nn(C)c(-c3cc(F)c(F)c(F)c3)c2CCN1C(=O)c1ccn2ccncc12 [Example 416, [(7S)-2,7-Dimethyl-3-(3,4,5-trifluorophenyl)-5,7-dihydro-4H-pyrazolo[3,4-c]pyridin-6-yl]-pyrrolo[1,2-a]pyrazin-8-yl-methanone] | 0.00718
12 | C[C@H]1c2nn(C)c(-c3cc(F)c(F)c(F)c3)c2CCN1C(=O)c1ncn2ccccc12 [Example 420, [(7S)-2,7-Dimethyl-3-(3,4,5-trifluorophenyl)-5,7-dihydro-4H-pyrazolo[3,4-c]pyridin-6-yl]-imidazo[1,5-a]pyridin-1-yl-methanone] | 0.0591
13 | C[C@H]1c2nn(C)c(-c3cc(F)c(F)c(F)c3)c2CCN1C(=O)c1ccnc2[nH]ncc12 [Example 422, [(7S)-2,7-Dimethyl-3-(3,4,5-trifluorophenyl)-5,7-dihydro-4H-pyrazolo[3,4-c]pyridin-6-yl]-(1H-pyrazolo[3,4-b]pyridin-4-yl)methanone] | 0.0459
14 | Cc1cc(C(=O)N2CCc3c(nn(C)c3-c3cc(F)c(F)c(F)c3)[C@@H]2C)c2cnn(C)c2n1 [Example 424, (1,6-Dimethylpyrazolo[3,4-b]pyridin-4-yl)-[(7S)-2,7-dimethyl-3-(3,4,5-trifluorophenyl)-5,7-dihydro-4H-pyrazolo[3,4-c]pyridin-6-yl]methanone] | 0.0107
15 | Cc1nn(C)c2nccc(C(=O)N3CCc4c(nn(C)c4-c4cc(F)c(F)c(F)c4)[C@@H]3C)c12 [Example 425, (1,3-Dimethylpyrazolo[3,4-b]pyridin-4-yl)-[(7S)-2,7-dimethyl-3-(3,4,5-trifluorophenyl)-5,7-dihydro-4H-pyrazolo[3,4-c]pyridin-6-yl]methanone] | 0.0681

Results, then the compound that gave them:

Row | IC50 [µM] | SMILES
16 | 0.248 | Cc1c(C(=O)N2CCc3c(nn(C)c3-c3cc(F)c(F)c(F)c3)[C@@H]2C)nc2ccccn12 [Example 398, [(7S)-2,7-Dimethyl-3-(3,4,5-trifluorophenyl)-5,7-dihydro-4H-pyrazolo[3,4-c]pyridin-6-yl]-(3-methylimidazo[1,2-a]pyridin-2-yl)methanone]
17 | 0.0632 | Cc1ccn2c(C(=O)N3CCc4c(nn(C)c4-c4cc(F)c(F)c(F)c4)[C@@H]3C)cnc2c1 [Example 399, [(7S)-2,7-Dimethyl-3-(3,4,5-trifluorophenyl)-5,7-dihydro-4H-pyrazolo[3,4-c]pyridin-6-yl]-(7-methylimidazo[1,2-a]pyridin-3-yl)methanone]
18 | 0.0145 | Cc1cccc2ncc(C(=O)N3CCc4c(nn(C)c4-c4cc(F)c(F)c(F)c4)[C@@H]3C)n12 [Example 401, [(7S)-2,7-Dimethyl-3-(3,4,5-trifluorophenyl)-5,7-dihydro-4H-pyrazolo[3,4-c]pyridin-6-yl]-(5-methylimidazo[1,2-a]pyridin-3-yl)methanone]
19 | 0.0766 | Cc1cc2nc(C)c(C(=O)N3CCc4c(nn(C)c4-c4cc(F)c(F)c(F)c4)[C@@H]3C)n2cc1F [Example 409, [(7S)-2,7-Dimethyl-3-(3,4,5-trifluorophenyl)-5,7-dihydro-4H-pyrazolo[3,4-c]pyridin-6-yl]-(6-fluoro-2,7-dimethyl-imidazo[1,2-a]pyridin-3-yl)methanone]
20 | 0.173 | Cc1nc2c(F)cc(F)cn2c1C(=O)N1CCc2c(nn(C)c2-c2cc(F)c(F)c(F)c2)[C@@H]1C [Example 410, (6,8-Difluoro-2-methyl-imidazo[1,2-a]pyridin-3-yl)-[(7S)-2,7-dimethyl-3-(3,4,5-trifluorophenyl)-5,7-dihydro-4H-pyrazolo[3,4-c]pyridin-6-yl]methanone]
21 | 0.0129 | C[C@H]1c2nn(C)c(-c3cc(F)c(F)c(F)c3)c2CCN1C(=O)c1c(C(F)F)nc2ccccn12 [Example 412, [2-(Difluoromethyl)imidazo[1,2-a]pyridin-3-yl]-[(7S)-2,7-dimethyl-3-(3,4,5-trifluorophenyl)-5,7-dihydro-4H-pyrazolo[3,4-c]pyridin-6-yl]methanone]
22 | 0.0204 | Cc1cccc2nc(C(F)(F)F)c(C(=O)N3CCc4c(nn(C)c4-c4cc(F)c(F)c(F)c4)[C@@H]3C)n12 [Example 414, [(7S)-2,7-Dimethyl-3-(3,4,5-trifluorophenyl)-5,7-dihydro-4H-pyrazolo[3,4-c]pyridin-6-yl]-[5-methyl-2-(trifluoromethyl)imidazo[1,2-a]pyridin-3-yl]methanone]
23 | 0.126 | Cc1cc(C)n2ccc(C(=O)N3CCc4c(nn(C)c4-c4cc(F)c(F)c(F)c4)[C@@H]3C)c2n1 [Example 417, (2,4-Dimethylpyrrolo[1,2-a]pyrimidin-8-yl)-[(7S)-2,7-dimethyl-3-(3,4,5-trifluorophenyl)-5,7-dihydro-4H-pyrazolo[3,4-c]pyridin-6-yl] methanone]
24 | 0.0146 | Cc1ncc2ccc(C(=O)N3CCc4c(nn(C)c4-c4cc(F)c(F)c(F)c4)[C@@H]3C)cn12 [Example 418, [(7S)-2,7-Dimethyl-3-(3,4,5-trifluorophenyl)-5,7-dihydro-4H-pyrazolo[3,4-c]pyridin-6-yl]-(3-methylimidazo[1,5-a]pyridin-6-yl)methanone]
25 | 0.192 | Cc1ccn2cnc(C(=O)N3CCc4c(nn(C)c4-c4cc(F)c(F)c(F)c4)[C@@H]3C)c2c1 [Example 419, [(7S)-2,7-Dimethyl-3-(3,4,5-trifluorophenyl)-5,7-dihydro-4H-pyrazolo[3,4-c]pyridin-6-yl]-(7-methylimidazo[1,5-a]pyridin-1-yl)methanone]
26 | 0.00666 | C[C@H]1c2nn(C)c(-c3cc(F)c(F)c(F)c3)c2CCN1C(=O)c1nc(C2CC2)n2ccccc12 [Example 421, (3-Cyclopropylimidazo[1,5-a]pyridin-1-yl)-[(7S)-2,7-dimethyl-3-(3,4,5-trifluorophenyl)-5,7-dihydro-4H-pyrazolo[3,4-c]pyridin-6-yl]methanone]
27 | 0.041 | C[C@H]1c2nn(C)c(-c3cc(F)c(F)c(F)c3)c2CCN1C(=O)c1cnc2[nH]ncc2c1 [Example 423, [(7S)-2,7-Dimethyl-3-(3,4,5-trifluorophenyl)-5,7-dihydro-4H-pyrazolo[3,4-c]pyridin-6-yl]-(1H-pyrazolo[3,4-b]pyridin-5-yl)methanone.TFA salt]
